In US20080051420A1, “New Compounds 317” (AstraZeneca AB, priority 2006, published 2008):

The compounds below were run against T1, human β-secretase (Homo sapiens, UniProt P56817) (assay: TR-FRET assay (β-secretase enzyme, sBACE-Fc)). Settings: read-out: IC50 in TR-FRET assay.
T1 construct: The soluble part of the human β-secretase (AA 1-AA 460) was cloned; made in house
Format: biochemical
Procedure: The enzyme used in the IGEN Cleavage-, Fluorescent-, TR-FRET- and BiaCore assays is described as follows:
The soluble part of the human β-secretase (AA 1-AA 460) was cloned into the ASP2-F10-1-IRES-GFP-neoK mammalian expression vector. The gene was fused to the Fc domain of IgG1 (affinity tag) and stably cloned into HEK 293 cells. Purified sBACE-Fc is stored in Tris buffer, pH 9.2 and has a purity of 95%.
Enzyme was diluted to 6 μg/mL and the substrate (Europium)[…](Qsy7) to 200 nM in reaction buffer (NaAcetate, chaps, triton x-100, EDTA pH 4.5). Compounds were diluted to the desired concentration in dimethyl sulfoxide (final dimethyl sulfoxide concentration in assay is 5%). […] Enzyme (9 μL) and 1 μL of compound in dimethyl sulfoxide was added to the plate, mixed and pre-incubated for 10 min. Substrate (10 μL) was added and the reaction proceeded in the dark for 15 min at RT. The reaction was stopped with the addition of 7 μL NaAcetate, pH 9. […] The dimethyl sulfoxide control defined the 100% activity level and 0% activity was defined by exclusion of the enzyme (using reaction buffer instead).

T1 sequence (P56817 22-460): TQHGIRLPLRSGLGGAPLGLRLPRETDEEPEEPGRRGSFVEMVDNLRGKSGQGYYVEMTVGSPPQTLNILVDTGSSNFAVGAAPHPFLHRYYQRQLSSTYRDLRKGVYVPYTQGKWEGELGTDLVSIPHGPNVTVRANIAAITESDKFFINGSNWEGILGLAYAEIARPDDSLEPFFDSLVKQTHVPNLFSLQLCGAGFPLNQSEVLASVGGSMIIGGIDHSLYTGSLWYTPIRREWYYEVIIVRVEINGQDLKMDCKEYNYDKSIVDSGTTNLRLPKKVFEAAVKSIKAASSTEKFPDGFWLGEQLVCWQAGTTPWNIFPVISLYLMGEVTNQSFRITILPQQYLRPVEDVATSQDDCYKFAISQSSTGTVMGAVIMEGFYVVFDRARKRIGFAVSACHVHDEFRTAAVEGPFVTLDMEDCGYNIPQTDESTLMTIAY

| IC50 | Structure (SMILES) |
| --- | --- |
| 156 nM | NC1=NC(c2cccc(OS(=O)(=O)C3CC3)c2)(c2cccc(-c3cc(Cl)cc(Cl)c3)c2)C2=NCCCN12 (stereo not shown) [Example 126, 3-[6-Amino-8-(3′,5′-dichlorobiphenyl-3-yl)-2,3,4,8-tetrahydroimidazo[1,5-a]pyrimidin-8-yl]phenyl cyclopropanesulfonate] |
| 177 nM | COc1cccc(-c2cccc(C3(c4cccc(OS(=O)(=O)C5CC5)c4)N=C(N)N4CCCN=C43)c2)c1 (stereo not shown) [Example 127, 3-[6-Amino-8-(3′-methoxybiphenyl-3-yl)-2,3,4,8-tetrahydroimidazo[1,5-a]pyrimidin-8-yl]phenyl cyclopropanesulfonate] |
| 214 nM | NC1=NC(c2cccc(OS(=O)(=O)C(F)(F)F)c2)(c2cccc(-c3cc(Cl)cc(Cl)c3)c2)C2=NCCCN12 (stereo not shown) [Example 128, 3-[6-Amino-8-(3′,5′-dichlorobiphenyl-3-yl)-2,3,4,8-tetrahydroimidazo[1,5-a]pyrimidin-8-yl]phenyl trifluoromethanesulfonate] |
| 464 nM | COc1cccc(-c2cccc(C3(c4cccc(OS(=O)(=O)C(F)(F)F)c4)N=C(N)N4CCCN=C43)c2)c1 (stereo not shown) [Example 129, 3-[6-Amino-8-(3′-methoxybiphenyl-3-yl)-2,3,4,8-tetrahydroimidazo[1,5-a]pyrimidin-8-yl]phenyl trifluoromethanesulfonate] |
| 137 nM | NC1=NC(c2cccc(OS(=O)(=O)C(F)(F)F)c2)(c2cccc(-c3cccnc3)c2)C2=NCCCN12 (stereo not shown) [Example 130, 3-[6-Amino-8-(3-pyridin-3-ylphenyl)-2,3,4,8-tetrahydroimidazo[1,5-a]pyrimidin-8-yl]phenyl trifluoromethanesulfonate] |
| 538 nM | NC1=NC(c2cccc(OS(=O)(=O)C(F)(F)F)c2)(c2cccc(-c3cc(Cl)cnc3F)c2)C2=NCCCN12 (stereo not shown) [Example 131, 3-{6-Amino-8-[3-(5-chloro-2-fluoropyridin-3-yl)phenyl]-2,3,4,8-tetrahydroimidazo[1,5-a]pyrimidin-8-yl}phenyl trifluoromethanesulfonate] |
| 375 nM | NC1=NC(c2cccc(OS(=O)(=O)C(F)(F)F)c2)(c2cccc(-c3cncnc3)c2)C2=NCCCN12 (stereo not shown) [Example 132, 3-[6-Amino-8-(3-pyrimidin-5-ylphenyl)-2,3,4,8-tetrahydroimidazo[1,5-a]pyrimidin-8-yl]phenyl trifluoromethanesulfonate] |
| 375 nM | COc1cc(OS(C)(=O)=O)cc(-c2cccc(C3(c4cccc(OC)c4)N=C(N)N4CCCN=C43)c2)c1 (stereo not shown) [Example 133, 3′-[6-Amino-8-(3-methoxyphenyl)-2,3,4,8-tetrahydroimidazo[1,5-a]pyrimidin-8-yl]-5-methoxybiphenyl-3-yl methanesulfonate] |
| 224 nM | CN(C)C(=O)c1cccc(C2(c3cccc(-c4cccnc4F)c3)N=C(N)N3CC(F)(F)CN=C32)c1 (stereo not shown) [Example 145, 3-{6-Amino-3,3-difluoro-8-[3-(2-fluoropyridin-3-yl)phenyl]-2,3,4,8-tetrahydroimidazo[1,5-a]pyrimidin-8-yl}-N,N-dimethylbenzamide] |
| 214 nM | CN(C)C(=O)c1ccc(C2(c3cccc(-c4cccnc4F)c3)N=C(N)N3CC(F)(F)CN=C32)cc1 (stereo not shown) [Example 146, 4-{6-Amino-3,3-difluoro-8-[3-(2-fluoropyridin-3-yl)phenyl]-2,3,4,8-tetrahydroimidazo[1,5-a]pyrimidin-8-yl}-N,N-dimethylbenzamide] |
